Reference: US20200237901A1 (priority 2016, published 2020)
“And” between values parts separate entries of the source, which are not always exact repeats. Identical values can stand only once.

Legend:
[1] = system: Ectromelia Virus Moscow strain (ECTV-MOS strain); parameters: species or system Balb/c mice; settings: mouse, in vivo, ip
[2] = female, Balb/c, mouse, in vivo, ip
[3] = system: murine hepatitis coronavirus A59 strain (MHV-A59); assay type: cell-based
[4] = system: Enterovirus 71 Hn2 strain (EV71-Hn2); assay type: cell-based

## Nc1ccn(C[C@@H](CO)OCP(=O)(O)O)c(=O)n1 [Cidofovir]
[1]
  Case-Fatality Rate (%): 6.67% and 13.33%
  Death Number: 1 and 2
  Survival Number: 14 and 13
  Survival Rate (%): 86.67% and 93.33%
[2]
  Case-Fatality Rate (%): 0%
  Death Number: 0
  Survival Number: 15
  Survival Rate (%): 100%
[3]
  effect on the titers of coronavirus (MHV): no effects
[4]
  effect on the titers of enterovirus (EV71): no effects
